Source: US20040121965A1, “Method of treating resistant tumors” (Wyeth Holdings Corporation, priority 2002, published 2004)
Where two headings read alike, the source gives them in different places. Square brackets hold non-standard residues; d marks the D form. Peptide text beside a SMILES is read from it. * marks the point of attachment. X1 = COC1=CC(=O)N(C(=O)[C@@H](O*)C(C)C)[C@H]1Cc1ccccc1; NMe2Val = CC(C)[C@@H](C(=O)*)N(C)C; NMeV = CN[C@H](C(=O)O)C(C)C

Assays:
[1] = system: KB-3-1; experiment: Cell survival assay (SRB), KB-3-1; assay type: cell-based, human
Summary of the method: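 Cells were exposed to serially diluted compound in duplicate for 3 days. Survival was read as protein content by SRB (TCA fixation 1 hr at 4 °C, 0.04% SRB stain, dissolved in 10 mM Tris, absorbance). KB-3-1 was grown in 20% FCS. IC50 is the concentration giving 50% growth inhibition.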

[2] = system: KB-HTI-4.0; experiment: Cell survival assay, KB-3-1 line made resistant to Example 129 (KB-HTI-4.0); assay type: cell-based, human
Description: Cells lines with previously known mechanisms of resistance. […] Res. 8: 207-218,1996); KB-3-1 (parental derived from an epidermoid carcinoma), KB-8.5, KB-V1 (Akiyama S-I, Fojo A, Hanover J A, Pastan I, Gottesman M M. Isolation and genetic characterization of human KB cell lines resistant to multiple drugs. Somatic Cell Mol. Gen., 11: 117-126,1985; Shen D-W, Cardarelli C, Hwang J, Cornwell M, Richert N, Ishii S, Pastan I, Gottesman MM. […] J. Biol. Chem., 261: 7762-7770, 1986); and HL-60 (parental derived from human leukemia) and HL60/AR (McGrath T., Center M. S. Adriamycin resistance in HL60 cells in the absence of detectable P-glycoprotein. Biochem. Res. Commun., 145:1171-1176,1987); A549 and A549.EpoB40 (He L., Yang C.-P.H., Horwitz S. B. Mutations in p-tubulin map to domains involved in regulation of microtubule stability in epothilone-resistant cell lines. Molecular Cancer Therapeutics. 1: 3-10, 2001). HCT-15 human colon carcinoma and DLD-1 human colon carcinoma are obtained from American Tissue Culture Collection. The MX-1W carcinoma is a Wyeth variant orginally obtained as MX-1 breast carcinoma from the National Cancer Institute. Cell lines selected for resistance to Representative Example 129. KB-3-1 cells are selected for resistance to Example 129 by chronically exposing cells to increasing concentrations of Example 129.
2.2. Cell Survival Assay: Standard Pharmacological Test Procedure. The concentration of candidate inhibitor required to inhibit 50% of cell growth (IC50) is done according to previously reported methods. […] Compounds are serially diluted into media as 2× stocks and 100 μl added to cells in duplicate. Compounds are incubated with cells for 3 days. At the end of the incubation period the sulforhodamine B (SRB) assay, which measures protein content as an assessment of cell survival, is performed as described previously (Skehan P, Storeng R, Scudiero D, Monks A, McMahon J, Vistica D, Warren J T, Bokesch H, Kenney S, Boyd MR. New calorimetric cytotoxicity assay for anticancer-drug screening. J Natl Cancer Inst 1990 Jul 4;82(13):1107-12) with some modification as follows. For KB-3-1 cells with 20% FCS, media is gently decanted and replaced with 200 μl of serum-free media mixed with cold 50% TCA for a final concentration of 10% TCA. The plates are incubated for 1 hr at 4° C., followed by washing 5 times in cold distilled water, then air dried overnight. The fixed cells are stained for 10 min with 80 μl of 0.04% SRB solution prepared in 1% glacial acetic acid. Stain is discarded and plates washed 5 times in 1% glacial acetic acid, then air-dried until completely dry. Stained cell product is dissolved in 150 μl of 10 mM Trizma Base and placed on a shaker for 20 minutes until fully dissolved. Absorbance is read on a Victor V multi-label plate reader (Perkin Elmer, Gaithersburg, Md.).
Cells are selected for resistance to Example 129 to understand the frequency and mechanistic basis of resistance.

[3] = system: KB-8-5 (MDR1+); experiment: Cell survival assay (SRB), KB-8-5 (MDR1+); details: for IC50: Homo sapiens
[4] = system: KB-V1 (MDR1++); experiment: Cell survival assay (SRB), KB-V1 (MDR1++); details: for IC50: Homo sapiens
[5] = system: Human Melanoma Carcinoma Lox; details: staged LOX xenograft; at MTD ('<': MTD not achieved); days 11-15
Procedure: 2.4. Growth of Tumors in Nude Mice. […] In these experiments, xenografts are implanted subcutaneously into the flanks of nude mice. […] Relative tumor mass compared to controls are assessed during the 21-day post-staging period.
Groups of 5 female nu/nu mice are injected with 1.5×10^6 KB-3-1 (A) or Lox cells (B). […] Relative tumor growth is determined during the experiment and % T/C calculated. Statistical analyses are Student's t-test of treated time points vs. vehicle (*, P<0.05; **, P<0.01)

[6] = Homo sapiens, KB-3-1 parental, Table 8, read-out: KB-3-1 IC50
[7] = Homo sapiens, KB-3-1 line made resistant to Example 129, Table 8, read-out: KB-HTI-4.0 IC50
[8] = KB-3-1 parental, Table 8, read-out: KB-3-1 IC50
[9] = KB-3-1 line made resistant to Example 129, Table 8, read-out: KB-HTI-4.0 IC50
[10] = MDR1, read-out: In vitro IC50 (nM) KB85
[11] = Homo sapiens, KB 3-1, 72 h, amount of drug needed to kill 50% of cells after three days continuous exposure, Table 11, read-out: IC50 in parental cell line KB-3-1
[12] = Homo sapiens, KB 3-1, KB-3-1 cells (paclitaxel-sensitive parent), read-out: In vitro IC50 (nM) KB-3-1
[13] = read-out: In vitro IC50 (nM) KBV1

## COc1cc2cc(c1Cl)N(C)C(=O)C[C@H](OC(=O)[C@H](C)N(C)C(C)=O)[C@]1(C)O[C@H]1[C@H](C)[C@@H]1C[C@@](O)(NC(=O)O1)[C@H](OC)/C=C/C=C(\C)C2 [Maytansine]
[1]; [6]
  IC50: 0.06 nM
[2]; [7]
  IC50: 0.84 ± 0.19 nM
[2]; KB-HTI-4.0 vs KB-3-1
  (RR) relative resistance vs. parental cells: (14)

## C=C(C)[C@@H]1NC(=O)[C@@H](NC)[C@@H](O)c2cc(Cl)c(O)c(c2)O[C@](C)(CC)[C@@H](C(=O)N2CC=C[C@H]2C(=O)N/C(C(=O)N/C(=C/C(=O)O)C(=O)O)=C(\C)CC)NC1=O [Phomopsin A]
[1]; [8]
  IC50: 671 ± 55 nM
[2]; [9]
  IC50: 3530 ± 2990 nM
[2]; KB-HTI-4.0 vs KB-3-1
  (RR) relative resistance vs. parental cells: (5)

## CN[C@@H](C(=O)N[C@H](C(=O)N(C)[C@H](/C=C(\C)C(=O)O)C(C)C)C(C)(C)C)C(C)(C)c1cc(F)cc(F)c1 [Example 65, 3,5-Difluoro-N,β,β-trimethyl-D-phenylalanyl-N^1-[(1S,2E)-3-carboxy-1-isopropylbut-2-enyl]-N^1,3-dimethyl-L-valinamide]
[3]
  Ratio KB85/KB: 1.5
[3]; [10]
  IC50: 2.9 nM
[1]; [11]
  IC50: 2 nM
[1]; [12]
  IC50: 2 nM
[4]
  Ratio KBV1/KB: 38.8
[4]; [13]
  IC50: 77.6 nM
[5]
  Activity in nude mice animal model (% T/C @ MTD on days 11-15) LOX: 8%

## CN[C@H](C(=O)N[C@H](C(=O)N(C)[C@H](/C=C(\C)C(=O)O)C(C)C)C(C)(C)C)C(C)(C)c1ccc(OC)cc1 [Example 57, N,O,β,β-tetramethyl-L-tyrosyl-N^1-[(1S,2E)-3-carboxy-1-isopropyl-2-butenyl]-N^1,3-dimethyl-L-valinamide]
[3]
  Ratio KB85/KB: 2.9
[3]; [10]
  IC50: 4.1 nM
[1]; [11]
  IC50: 1.4 nM
[1]; [12]
  IC50: 1.4 nM
[4]
  Ratio KBV1/KB: 102.0
[4]; [13]
  IC50: 142 nM
[5]
  Activity in nude mice animal model (% T/C @ MTD on days 11-15) LOX: <1^4%

## CCC1=C[C@@H]2CN(C1)Cc1c([nH]c3ccccc13)[C@@](C(=O)OC)(c1cc3c(cc1OC)N(C)[C@H]1[C@@](O)(C(=O)OC)[C@H](OC(C)=O)[C@]4(CC)C=CCN5CC[C@]31[C@@H]54)C2 [vinorelbine, reference compound]
[3]; MDR1, read-out: KB-8-5 (MDR1+) IC50, nM (N)
  IC50: 132 nM
[3]; IC50 KB-8-5 / IC50 KB-3-1, Table 3
  RR, relative resistance: 38
[3]; KB-8-5 (KB-85) vs KB-3-1, in vitro
  resistance of KB-8-5 cells: 38 fold
[1]; Homo sapiens, KB-3-1 parental, Table 3, read-out: KB-3-1 IC50, nM (N)
  IC50: 3.5 nM
[1]; [6]
  IC50: 1.22 ± 0.33 nM
[4]; read-out: KB-V1 (MDR1++) IC50, nM (N)
  IC50: > 3000 nM
[4]; IC50 KB-V1 / IC50 KB-3-1, Table 3
  RR, relative resistance: >857
[2]; [7]
  IC50: 8.64 ± 2.94 nM
[2]; KB-HTI-4.0 vs KB-3-1
  (RR) relative resistance vs. parental cells: (7)

## COC1=CC(=O)N(C(=O)[C@@H](OC(=O)[C@@H]2CCCN2C(=O)[C@@H]2CCCN2C(=O)[C@H](C(C)C)N(C)C(=O)[C@@H](NC(=O)[C@H](C(C)C)N(C)C)C(C)C)C(C)C)[C@H]1Cc1ccccc1 [Dolastatin −15] (NMe2Val-V[NMeV]PP-X1)
[1]; [8]
  IC50: 0.04 ± 0.05 nM
[2]; [9]
  IC50: 0.49 ± 0.14 nM
[2]; KB-HTI-4.0 vs KB-3-1
  (RR) relative resistance vs. parental cells: (12)

## CC[C@@]1(O)C(=O)OCc2c1cc1n(c2=O)Cc2cc3c(CN(C)C)c(O)ccc3nc2-1 [Topotecan, topotecan]
[1]; [6]
  IC50: 18.1 ± 2.98 nM
[2]; [7]
  IC50: 1030 ± 541 nM
[2]; KB-HTI-4.0 vs KB-3-1
  (RR) relative resistance vs. parental cells: (57)

## CO[C@@H](/C(C)=C/C=C/C(C)=C/c1coc(C)n1)[C@@H](C)[C@@H]1C[C@H](O)[C@@]2(C)O[C@@H]2/C=C/[C@@H](C)[C@H]2C[C@H](CC(=O)O2)C[C@@H]2O[C@H]2C(=O)O1 [Rhizoxin]
[1]; Homo sapiens, KB 3-1, KB-3-1 parental, Table 8, read-out: KB-3-1 IC50
  IC50: 9.13 ± 2.17 nM
[2]; [7]
  IC50: 98.4 ± 37.6 nM
[2]; KB-HTI-4.0 vs KB-3-1
  (RR) relative resistance vs. parental cells: (11)

## dolastatin
[2]; vs KB-3-1
  resistance of KB-3-1-derived cell lines selected with Example 129: 28 fold

## C(=N\NC1=NCCN1)/c1c2ccccc2c(/C=N/NC2=NCCN2)c2ccccc12 [Bisantrene]
[1]; [6]
  IC50: 119 ± 47 nM
[2]; [7]
  IC50: 299 ± 91 nM
[2]; KB-HTI-4.0 vs KB-3-1
  (RR) relative resistance vs. parental cells: (3)

## C=CC(C)(C)[C@H](NC(=O)[C@@H](NC)C(C)(C)c1ccccc1)C(=O)N(C)[C@H](/C=C(\C)C(=O)O)C(C)C [Example 120, (2E,4S)4-[{(2S)-3,3-dimethyl-2-[(N,β,β-trimethyl-L-phenylalanyl)amino]4-pentenoyl}(methyl)amino]-2,5-dimethyl-2-hexenoic Acid]
[1]; [11]
  IC50: 3.5 nM
[5]
  Activity in nude mice animal model (% T/C @ MTD on days 11-15) LOX: 20%

## CO[C@]12C=C[C@](C)(O1)[C@@H](OC(=O)/C=C/c1cn(C)cn1)C[C@H]1C(C)=CC[C@H](C(C)C)[C@H]1/C=C\2CO[C@@H]1OC[C@@H](O)[C@@H](O)[C@@H]1OC(C)=O [Eleutherobin]
[1]; Homo sapiens, KB 3-1, read-out: KB-3-1 IC50, nM
  IC50: 17.4 ± 1.63 nM
[2]
  (RR) relative resistance vs. parental cells: (1)
[2]; Homo sapiens, KB 3-1, read-out: KB-HTI-4.0 IC50, nM
  IC50: 21.3 ± 4.4 nM

## CN[C@H](C(=O)N[C@H](C(=O)N(C)[C@H](/C=C/C(=O)O)C(C)C)C(C)(C)C)C(C)(C)c1ccccc1 [Example 118, N,β,β-trimethyl-L-phenylalanyl-N^1-[(1S,2E)-3-carboxy-1-isopropylprop-2-enyl]-N^1,3-dimethyl-L-valinamide]
[3]
  Ratio KB85/KB: 2.5
[3]; [10]
  IC50: 479 nM
[1]; [12]
  IC50: 190 nM
[4]
  Ratio KBV1/KB: 15.7
[4]; [13]
  IC50: ≥ 3000 nM

## CC[C@@]1(O)C(=O)OCc2c1cc1n(c2=O)Cc2cc3ccccc3nc2-1 [Camptothecin, camptothecin]
[1]; [6]
  IC50: 14.9 ± 6.11 nM
[2]; [7]
  IC50: 335 ± 157 nM
[2]; KB-HTI-4.0 vs KB-3-1
  (RR) relative resistance vs. parental cells: (23)

## CCN(C(=O)[C@@H](NC(=O)[C@@H](NC)C(C)(C)c1ccccc1)C(C)(C)C)[C@H](/C=C(\C)C(=O)O)C(C)C.O=C(O)C(F)(F)F [Example 94, N,β,β-trimethyl-L-phenylalanyl-N^1-[(1S,2E)-3-carboxy-1-isopropylbut-2-enyl]-N^1-ethyl-3-methyl-L-valinamide Trifluoroacetic Acid]
[3]
  Ratio KB85/KB: 1.8
[3]; [10]
  IC50: 197 nM
[1]; [12]
  IC50: 109 nM
[4]
  Ratio KBV1/KB: 27.5
[4]; [13]
  IC50: ≥ 3000 nM
